Measured values reported in ChEMBL document CHEMBL4420074, “Small molecule inhibitors of Dusp6 and uses therefor” (2015).
Activity calls are given as the source filed them. No cut-off for these calls is given here.

Experiments:
[1] = target: T1, Dual specificity protein phosphatase (Danio rerio) (UniProt Q7T2L8); assay: Inhibition of Dusp6 in (Tg(Dusp6:d2EGFP)pt6) transgenic Zebrafish assessed as activation of FGF signaling after 2 hrs by d2EGFP fluorescence based assay
T1 sequence (whole entry): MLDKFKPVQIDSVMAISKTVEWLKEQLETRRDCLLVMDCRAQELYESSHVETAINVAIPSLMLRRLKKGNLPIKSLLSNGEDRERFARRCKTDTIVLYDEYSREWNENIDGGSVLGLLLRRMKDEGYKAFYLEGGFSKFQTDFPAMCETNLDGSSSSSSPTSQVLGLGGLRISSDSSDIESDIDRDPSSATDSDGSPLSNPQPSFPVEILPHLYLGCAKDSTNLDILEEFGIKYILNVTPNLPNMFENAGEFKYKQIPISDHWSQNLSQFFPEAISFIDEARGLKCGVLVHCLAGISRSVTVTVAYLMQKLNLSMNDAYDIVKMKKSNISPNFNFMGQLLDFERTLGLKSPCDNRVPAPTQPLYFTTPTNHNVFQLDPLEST

[2] = target: T1, Dual specificity protein phosphatase (Danio rerio); assay: Inhibition of Dusp6 in (Tg(Dusp6:d2EGFP)pt6) transgenic Zebrafish assessed as activation of FGF signaling by measuring increase in ntl expression within notochord and tail bud at 6-somite stage at 10 to 20 uM dosed prior to gastrulation by whole mount in situ hybridization assay; type: organism-based
[3] = target: T1, Dual specificity protein phosphatase (Danio rerio); assay: Inhibition of Dusp6 in (Tg(Dusp6:d2EGFP)pt6) transgenic Zebrafish assessed as activation of FGF signaling by measuring increase in dusp6 expression at 10 to 20 uM dosed 1 to 10-somite stage by whole mount in situ hybridization assay; type: organism-based
[4] = target: T1, Dual specificity protein phosphatase (Danio rerio); assay: Inhibition of Dusp6 in (Tg(Dusp6:d2EGFP)pt6) transgenic Zebrafish assessed as activation of FGF signaling by measuring expansion of prospective mid-hindbrain boundary at 10 to 20 uM dosed 1 to 10-somite stage by whole mount in situ hybridization assay; type: organism-based
[5] = target: T1, Dual specificity protein phosphatase (Danio rerio); assay: Inhibition of Dusp6 in (Tg(Dusp6:d2EGFP)pt6) transgenic Zebrafish assessed as activation of FGF signaling by measuring increase in eng3 expression at 10 to 20 uM dosed 1 to 10-somite stage by whole mount in situ hybridization assay; type: organism-based
[6] = target: T1, Dual specificity protein phosphatase (Danio rerio); assay: Inhibition of Dusp6 in (Tg(Dusp6:d2EGFP)pt6) transgenic Zebrafish assessed as activation of FGF signaling by measuring expansion of rhombomere-4 and tail bud at 10 to 20 uM dosed 1 to 10-somite stage by whole mount in situ hybridization assay; type: organism-based
[7] = target: T1, Dual specificity protein phosphatase (Danio rerio); assay: Inhibition of Dusp6 in (Tg(Dusp6:d2EGFP)pt6) transgenic Zebrafish assessed as activation of FGF signaling by measuring increase in krox20 expression at 10 to 20 uM dosed 1 to 10-somite stage by whole mount in situ hybridization assay; type: organism-based
[8] = target: T1, Dual specificity protein phosphatase (Danio rerio); assay: Inhibition of Dusp6 in (Tg(Dusp6:d2EGFP)pt6) transgenic Zebrafish assessed as activation of FGF signaling by measuring increase in sef expression at 10 to 20 uM by semi-quantitative RT-PCR analysis
[9] = target: T1, Dual specificity protein phosphatase (Danio rerio); assay: Inhibition of Dusp6 in (Tg(Dusp6:d2EGFP)pt6) transgenic Zebrafish assessed as activation of FGF signaling by measuring increase in spry4 expression at 10 to 20 uM by semi-quantitative RT-PCR analysis
[10] = target: T1, Dual specificity protein phosphatase (Danio rerio); assay: Inhibition of Dusp6 in (Tg(Dusp6:d2EGFP)pt6) transgenic Zebrafish assessed as activation of FGF signaling at 5 uM by d2EGFP fluorescence based assay
[11] = target: T1, Dual specificity protein phosphatase (Danio rerio); assay: Inhibition of Dusp6 in (Tg(Dusp6:d2EGFP);ace mutant) transgenic Zebrafish assessed as activation of FGF signaling in mid-hindbrain boundary by d2EGFP fluorescence based assay
[12] = target: T1, Dual specificity protein phosphatase (Danio rerio); assay: Inhibition of Dusp6 in Zebrafish 1-cell stage embryos assessed as rescue of Zebrafish dusp6-mediated suppression of sef expression at 5 uM
[13] = species: Danio rerio; assay: Inhibition of exogenous Zebrafish spry4-mediated suppression of sef expression in Zebrafish 1-cell stage embryos at 5 uM; type: functional, organism-based
[14] = species: Danio rerio; assay: Inhibition of exogenous Zebrafish XFD-mediated suppression of sef expression in Zebrafish 1-cell stage embryos at 5 uM; type: functional, organism-based
[15] = target: T2, Dual specificity protein phosphatase (Danio rerio) (UniProt Q6PBT4); assay: Inhibition of Dusp5 in Zebrafish 1-cell stage embryos assessed as rescue of Zebrafish dusp5-mediated suppression of sef expression at 5 uM
T2 sequence (whole entry): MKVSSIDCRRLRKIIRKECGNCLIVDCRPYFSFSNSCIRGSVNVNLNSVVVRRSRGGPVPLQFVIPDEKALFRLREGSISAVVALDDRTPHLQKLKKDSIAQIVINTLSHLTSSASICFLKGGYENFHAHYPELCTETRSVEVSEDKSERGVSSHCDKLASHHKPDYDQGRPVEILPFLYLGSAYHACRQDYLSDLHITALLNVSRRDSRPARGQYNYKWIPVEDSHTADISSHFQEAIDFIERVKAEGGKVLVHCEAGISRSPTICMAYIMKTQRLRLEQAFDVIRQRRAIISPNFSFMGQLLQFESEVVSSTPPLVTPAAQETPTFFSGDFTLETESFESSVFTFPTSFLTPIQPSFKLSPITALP

[16] = target: T3, Dual specificity protein phosphatase 6 (Homo sapiens) (UniProt Q16828); assay: Inhibition of Myc-tagged human Dusp6 expressed in TPA-stimulated human HeLa cells assessed as suppression of Dusp6-induced reduction in ERK phosphorylation by immunostaining based assay; type: cell-based
T3 sequence (whole entry): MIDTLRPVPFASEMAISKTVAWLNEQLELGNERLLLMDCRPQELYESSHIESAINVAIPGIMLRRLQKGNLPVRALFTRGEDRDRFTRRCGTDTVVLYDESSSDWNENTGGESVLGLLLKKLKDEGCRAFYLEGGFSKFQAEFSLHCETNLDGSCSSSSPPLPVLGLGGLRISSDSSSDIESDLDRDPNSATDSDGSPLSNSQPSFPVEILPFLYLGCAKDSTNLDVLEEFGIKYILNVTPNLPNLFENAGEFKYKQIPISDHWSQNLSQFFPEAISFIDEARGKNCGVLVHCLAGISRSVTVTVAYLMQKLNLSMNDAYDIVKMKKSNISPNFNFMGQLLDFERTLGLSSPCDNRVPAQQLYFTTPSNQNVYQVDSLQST

[17] = target: T3, Dual specificity protein phosphatase 6 (Homo sapiens); assay: Inhibition of Myc-tagged human Dusp6 expressed in TPA-stimulated human HeLa cells assessed as suppression of Dusp6-induced reduction in ERK phosphorylation at 0.5 to 2 uM by immunostaining based assay; type: cell-based
[18] = target: T4, Dual specificity protein phosphatase 1 (Homo sapiens) (UniProt P28562); assay: Inhibition of Myc-tagged human Dusp1 expressed in TPA-stimulated human HeLa cells assessed as suppression of […] reduction in ERK phosphorylation at 0.5 to 2 uM by immunostaining based assay; type: cell-based
T4 sequence (whole entry): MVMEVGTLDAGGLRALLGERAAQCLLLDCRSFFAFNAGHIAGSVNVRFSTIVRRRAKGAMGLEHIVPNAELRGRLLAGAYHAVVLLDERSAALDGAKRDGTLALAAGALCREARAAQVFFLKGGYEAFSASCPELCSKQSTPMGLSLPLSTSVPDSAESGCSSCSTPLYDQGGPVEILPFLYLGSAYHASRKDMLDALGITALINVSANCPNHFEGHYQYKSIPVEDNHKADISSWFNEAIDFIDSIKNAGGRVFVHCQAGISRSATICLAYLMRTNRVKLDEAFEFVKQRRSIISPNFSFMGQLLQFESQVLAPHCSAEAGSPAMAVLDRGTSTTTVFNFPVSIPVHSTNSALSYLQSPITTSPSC

[19] = target: T3, Dual specificity protein phosphatase 6 (Homo sapiens); assay: Inhibition of recombinant His-tagged Dusp6 (unknown origin) assessed as suppression of […] dephosphorylation at 100 uM incubated for 60 mins by immunoblotting
[20] = target: T3, Dual specificity protein phosphatase 6 (Homo sapiens); assay: Inhibition of recombinant His-tagged Dusp6 (unknown origin) assessed as reduction in basal Dusp6 activity at 100 uM using OMFP substrate by fluorescence based assay
[21] = target: T1, Dual specificity protein phosphatase (Danio rerio); assay: Inhibition of Dusp6 in Zebrafish assessed as assessed as activation of FGF signaling by measuring reduction in ETSRP expression relative to control
[22] = species: Danio rerio; assay: Induction of cardiac tissue expansion in Zebrafish embryos exposed to compound at larval stage followed by compound washout in next day and further incubation until embryos reached 56 hpf; type: functional, organism-based
[23] = species: Danio rerio; assay: Induction of cardiac tissue expansion in Zebrafish embryos exposed to compound at 1 and 8-somite stages followed by compound washout in next day and further incubation until embryos reached 56 hpf; type: functional, organism-based
[24] = species: Danio rerio; assay: Induction of cardiac tissue expansion in Zebrafish embryos exposed to compound at post 1 and 8-somite stages followed by compound washout in next day and further incubation until embryos reached 56 hpf; type: functional, organism-based
[25] = species: Danio rerio; assay: Induction of cardiac tissue expansion in Zebrafish embryos assessed as induction of heart enlargement by measuring increase in VHMC expression exposed to compound at larval stage followed by compound washout in next day and further incubation until embryos reached 56 hpf by in situ hybridization assay; type: functional, organism-based
[26] = species: Danio rerio; assay: Induction of cardiac tissue expansion in Zebrafish embryos assessed as induction of heart enlargement by measuring increase in cmlc2 expression exposed to compound at larval stage followed by compound washout in next day and further incubation until embryos reached 56 hpf by in situ hybridization assay; type: functional, organism-based
[27] = species: Danio rerio; assay: Induction of cardiac tissue expansion in ventricular tissue of Zebrafish embryos exposed to compound at larval stage followed by compound washout in next day and further incubation until embryos reached 56 hpf; type: functional, organism-based
[28] = target: T1, Dual specificity protein phosphatase (Danio rerio); assay: Inhibition of Dusp6 in (Tg(Dusp6:d2EGFP)pt6) transgenic Zebrafish assessed as activation of FGF signaling at 20 uM treated at 24 hours post fertilization and measured after 6 hrs post dose by d2EGFP fluorescence based assay relative to BCI; parameters: scale not given: the % may be the effect or the level left
[29] = Toxicity in (Tg(Dusp6:d2EGFP)pt6) transgenic Zebrafish assessed as induction of embryo death at 10 uM incubated for 24 hrs; parameters: species or system Danio rerio; conditions: in vivo, other: incubation
[30] = target: T1, Dual specificity protein phosphatase (Danio rerio); assay: Inhibition of Dusp6 in (Tg(Dusp6:d2EGFP)pt6) transgenic Zebrafish assessed as activation of FGF signaling at 20 uM by d2EGFP fluorescence based assay
[31] = Toxicity in (Tg(Dusp6:d2EGFP)pt6) transgenic Zebrafish assessed as induction of embryo death at 40 uM incubated for 24 hrs; parameters: species or system Danio rerio; conditions: in vivo
[32] = Toxicity in (Tg(Dusp6:d2EGFP)pt6) transgenic Zebrafish assessed as induction of tail necrosis at >10 uM incubated for 24 hrs; parameters: species or system Danio rerio; conditions: in vivo
[33] = Toxicity in (Tg(Dusp6:d2EGFP)pt6) transgenic Zebrafish assessed as induction of embryo death at >10 uM incubated for 24 hrs; parameters: species or system Danio rerio; conditions: in vivo
[34] = Toxicity in (Tg(Dusp6:d2EGFP)pt6) transgenic Zebrafish assessed as induction of embryo death at 20 uM incubated for 24 hrs; parameters: species or system Danio rerio; conditions: in vivo, other: incubation
[35] = target: Dual specificity protein phosphatase 6 (Homo sapiens) (UniProt Q16828); assay: Inhibition of recombinant His-tagged Dusp6 (unknown origin) assessed as suppression of […] dephosphorylation at 1 mM incubated for 60 mins by immunoblotting

O=C1/C(=C/c2ccccc2)C(NC2CCCCC2)c2ccccc21 (stereo in doubt; form 1) [listing 1 of 2 here]
inhibition [1]: Dose-dependent effect | inhibition [2]: Active | inhibition [3]: Active | inhibition [4]: Active | inhibition [5]: Active | inhibition [6]: Active | inhibition [7]: Active | inhibition [8]: Active | inhibition [9]: Active | inhibition [10]: Active | inhibition [11]: inactive | inhibition [12]: Active | inhibition [13]: inactive | inhibition [14]: inactive | inhibition [15]: inactive | inhibition [16]: Active | inhibition [17]: Active | inhibition [18]: Active | inhibition [19]: Active | inhibition [20]: inactive | inhibition [21]: Active | Activity [22]: Dose-dependent effect | Activity [23]: Active | Activity [24]: inactive | Activity [25]: Active | Activity [26]: Active | Activity [27]: Active | Activity [28]: 100%

CC(C)(C)OC(=O)N[C@H]1CC[C@H](NC2/C(=C\c3ccccc3)C(=O)c3ccccc32)CC1 (stereo partly drawn)
Activity [28]: inactive

O=C1/C(=C/c2ccccc2)C(N2CCOCC2)c2ccccc21 (stereo not drawn)
mortality at 24 h, 10 µM [29]: 100%

N#Cc1ccc2c(c1)C(NC1CCCCC1)/C(=C\c1ccccc1)C2=O (stereo not drawn)
Activity [28]: inactive

O=C1/C(=C/c2ccccc2)C(NC2CCCCC2)c2ccccc21 (stereo in doubt; form 2)
Activity [28]: 82%

O=C1/C(=C/c2ccccc2)Cc2ccccc21
inhibition [30]: inactive

O=C1/C(=C/c2ccccc2)C(NC2CCCCC2)c2cc(Br)ccc21 (stereo not drawn)
Activity [31]: Non-Toxic

O=C1N[C@H]2[C@H](CS[C@H]2CCCCC(=O)N[C@H]2CC[C@H](NC3/C(=C\c4ccccc4)C(=O)c4ccccc43)CC2)N1 (stereo partly drawn)
Activity [28]: inactive

O=C1/C(=C/c2ccccc2)C(NC2CCCCC2)c2ccccc21 (stereo in doubt; form 1) [listing 2 of 2 here]
Activity [32]: Toxic | Activity [33]: Toxic | mortality at 24 h, 20 µM [34]: 100%

O=C1CC(NC2CCCCC2)c2ccccc21 (stereo not drawn)
inhibition [30]: inactive | inhibition [17]: inactive | inhibition [18]: inactive | inhibition [19]: inactive

SODIUM ORTHOVANAD
inhibition [35]: Active
